Assay results reported in patent US5132291A, “Antivirals and methods for increasing the antiviral activity of AZT” (priority 1989, dated 1992).
Read-outs that look alike come from different tables or passages of the source. Values belong to the molecule of their own block, whether it stands above or below them.

Tests used:
[1] = test system: SAH hydrolase; test: SAH hydrolase inhibition; type: biochemical
Protocol: The effect of incubation time and AICA riboside concentration on SAH hydrolase activity was determined as follows. Five samples of SAH hydrolase were incubated at the following AICA riboside concentrations: 0, 10, 25, 50 and 100 μM. The incubation buffer consisted of 25 mM potassium phosphate pH 7.0, 1 mM EDTA, 1 mM, DTT and 0.04% BSA. The total enzyme added to incubation mixture was 10 μg. At indicated times, 10 μl of sample was withdrawn and assayed in the following assay system: 25 mM potassium phosphate, pH 7.0, 40 mM DL-Homocysteine, 1 mM EDTA, 1 mM DTT, 10 μM EHNA, 0.1% BSA and 10 μM U-^14 C Adenosine (590 m Ci/mmole). The reaction was stopped by adding 15 μl of 30% TCA. The samples were then centrifuged and 15 μl were removed and applied to Kodak cellulose 13254 TLC plates along with SAH and adenosine markers. The plates were then developed in a solvent system of 1-butanol:methanol:H2 O:ammonium hydroxide (60:20:20:2). The adenosine and S-adenosyl homocysteine were visualized under UV light and the spots were cut from the plate. Radioactivity of the spots was determined by liquid scintillation spectrometry. From a plot of the reciprocal of Kinactivation vs. 1/AICA riboside concentration the values of Ki (X-intercept) and Kmax (Y-intercept), were determined (FIG. 10(b)).

[2] = test system: N2 virus (replication-defective murine leukemia virus construct); test: N2 colony resistance assay on 208F rat fibroblasts; type: cell-based; settings: 0.01 μM AZT compared with 500 μM AICA riboside
Source text: As described in Example Two, several retroviral assay systems were utilized to test the antiviral activity of various purine nucleoside compounds. One assay system employed a replication-defective murine leukemia virus construct "N2") containing a selectable marker (the neomycin resistance gene). The N2 virus construct is present in the producer or "helper" cell line also called N2 which contains a second retroviral construct that encodes for the production of the retrovirus proteins necessary for packaging and which can, therefore, psuedotype the N2 vector into an infective amphotrophic murine retrovirus. […]
(§1) In this colony-forming bioassay for the characterization of antiviral compounds against retroviruses, a replication-defective retroviral vector construct having the ability to confer neomycin-resistance (U937/BAG or N2) is psuedotyped, infects a single cell, and under neomycin selection, allows the recipient cell to form a colony. Since each infection yields a neomycin-resistant cell capable of producing a discrete group of cells, colonies can be counted, resulting in a linear relationship between the number of colonies and the first order of virus concentration. […]
Neomycin selection (500 μg/ml) was begun the next day and continued for eight days post-infection, changing the media three times per week. […] All colonies with 50 or more aggregate cells were counted.

[3] = test system: BAG vector pseudotyped by MA (amphotrophic murine leukemia virus); test: U937/BAG+MA colony resistance assay titered on 208F rat fibroblasts; type: cell-based; settings: 0.01 μM AZT
Protocol: A second, similar assay system was utilized in which a human macrophage line (U937) carrying the BAG retroviral vector construct (having neomycin resistance and beta-galactosidase marker genes), Cepko, PNAS, Vol. 84, p. 156-160 (1987), was infected with MA (amphotrophic MLV [murine leukemia virus]). MA was used to pseudotype the replication-defective BAG vector, which was then titered on 208F cells. According to this assay, the results of which are shown in FIG. 1c, 0.01 μM AZT and 500 μM AICA riboside were both effective against murine retroviruses. […]
as §1
After drying, the plates were stained with 2 ml of 1:20 Glemsa (Sigma) for 1 hour. […] All colonies containing 50 or more cells were scored.

[4] = test system: HIV-1; test: HIV syncitial forming assay using CEM-SS cells; type: cell-based; settings: AZT 0.01 μM and 0.1 μM, 24 hour preincubation before HIV infection
Source text: The following cytomorphologic infectivity bioassay was used to characterize antiviral activity against HIV-1. In the following assay a single infectious unit of virus infects a single cell and initiates a focal expression of that infection, i.e., a syncitium. Since a single infectious unit leads to a discrete response, a linear relationship exists between the number of virally-induced cytopathic effects and the first order of virus concentration. Application of this procedure in assays for virus inactivation allows for evaluation of the candidate antiviral agent.
CEM-SS (syncitium-sensitive Leu 3a-positive CEM cell line) cells were grown in RPMI 1640 cell culture media (Irvine Scientific) supplemented with 10% heat-inactivated fetal bovine serum (Gemini Bioproducts) and 1% […] glutamine (Gibco). Log-phase cells were split 1:2 with the growth medium the day prior to setting up the assay to standardize plating conditions and to assure a population of logarithmically growing cells. Ninety-six-well plates (Costar) were pretreated with 50 μl of 50 μg/ml poly-1-lysine (MW=295,000 Sigma) "PLL") and were left at room temperature for 60 minutes. Residual PLL was removed with two washes of PBS. The plates were stored in the incubator until used.
On the day of the assay, the cells were counted and enough cells were harvested to plate each well with 5.0×10^4 cells per well in a volume of 200 μl (or 20 ml of […] was appropriate for each 96-well microtitre plate).
The cells were plated out on the PLL pre-treated microtitre plates at 5.0×10^4 cells/well in a volume of 200 μl. After allowing attachment for 30 minutes at 37° C. and 5% CO2, the antiviral agent(s) were added in the noted amounts and the treated plates were pre-incubated for 24 hours.
The HIV-1 virus stock (isolated from infected H-9 cells) was diluted in growth medium to yield 100 SFU (syncytial-forming units) per well. Diluted HIV-1 virus, 20 μl, was added to appropriate wells. All the plates were then incubated for 5 days at 37° C. and 5% CO2. On day 5 post-infection, the cells were given a 100 μl media change. […]

[5] = test system: HIV; test: HIV syncitial forming assay using SupT-1 cells; type: cell-based
Protocol: The assay was performed following the procedure described in Example Three except that SupT-1 cells were used. Using the SupT-1 cells, the medium was not changed at day 5 post-infection and the syncitia were counted at day 5 post-infection at 40X. The results are plotted in FIGS. 5, 6(b), and 7.

[6] = cited from earlier work
[7] = test system: peripheral blood macrophages; settings: cited from earlier work
[8] = test system: AIDS virus; settings: cited from earlier work

- inhibition of SAH hydrolase [1]: very potent inhibitors
- inhibition of SAH hydrolase ([1]; even at a concentration as low as 10 μM): potent inhibitors
Structure (SMILES): NC(=O)c1nc[nH]c1N [AICA]

Structure (SMILES): Cc1cn([C@H]2C[C@H](N=[N+]=[N-])[C@@H](CO)O2)c(=O)[nH]c1=O [AZT, 3'azido-3'deoxythymidine]
- antiviral activity (neomycin-resistant colonies) [2]: somewhat better antiviral activity than 500 μM AICA riboside
- effectiveness against murine retroviruses [3]: effective
- antiviral effect (number of syncitia) [4]: antiviral effects
- effectiveness against the AIDS virus (prevention of syncitial formation) ([5]; AZT 0.01 μM-1 μM, 7200 min): less than 100%
- inhibition at 10 µM ([5]; Human immunodeficiency virus 1, SUP-T1, 120 h, read-out: effectiveness against the AIDS virus (prevention of syncitial formation)): 100%
- patients with macrocytic anemia ([6]; CD4 (T4) lymphocyte count ≤200/mm^3): up to 45%
- patients with granulocytopenia ([6]; CD4 count >200/mm^3): up to 40%
- patients with granulocytopenia ([6]; CD4 count ≤200/mm^3): up to 55%
- accumulation of AZT nucleotides in macrophages as compared to CEM [7]: nine-fold lower

Structure (SMILES): NC(=O)c1ncn([C@@H]2O[C@H](CO)[C@@H](O)[C@H]2O)n1 [ribavirin]
- decrease of phosphorylation of AZT to the mono-, di-, and triphosphate forms ([8]; AIDS infected and uninfected cells): approximately a factor of ten
- effect on effectiveness of AZT against the AIDS virus ([8]; peripheral blood lymphocytes and H9 cells): reduced the effectiveness of AZT
